# Legend:
# […] (Pro-Rich) = Fluorescence anisotropy binding to fluorescein-labeled Pro-rich peptide; settings: GST-WW-domains; † estimated Kd, no plateau at 100 μM WW-domain
# Cdc2 phosphorylated tau = experiment: Binding of Cdc2 phosphorylated tau to Taxol-stabilized microtubules; type: biochemical; settings: Pin1 0.1 mg/ml, tau 0.1 mg/ml
# Source text: The high affinity interaction between Pin 1 and phosphorylated tau can affect the biological activity of tau. Upon phosphorylation by many protein kinases, including Cdc2, tau loses its ability to bind microtubules (MTs) and promote MT assembly (Bramblett, G. T. et al., Neuron 10:1089-1099 (1993); Iqbal, K. et al., FEBS Lett 349:104-108 (1994); Yoshida, H. and Ihara, Y. J Neurochem 61:1183-1186 (1993); Alonso, A. C. et al., Proc Natl Acad Sci USA 91:5562-5566 (1994); Busciglio, J. et al., Neuron 14:879-888 (1995)) although the exact mechanism is not fully understood. To determine whether Pin1 can restore the ability of phosphorylated tau to bind MTs, phosphorylated tau was produced using purified Cdc2 (Vincent, I. et al., J Cell Biol 132:413-425 (1996); Vincent, I. et al., J Neurosci 17:3588-3598 (1997)) and assessed for its ability to bind Taxol-stabilized MTs in the presence or absence of Pin1. […] Pin1 was detected in the fraction of tau-bound MTs confirming interaction between Pin1 and phosphorylated tau.
# The effect of Pin1 on the ability of phosphorylated tau to promote MT assembly was determined using light-scattering assays (Bramblett, G. T. et al., Neuron 10:1089-1099(1993); Alonso, A. C. et al., Proc Natl Acad Sci USA 91:5562-5566 (1994); Busciglio, J. et al., Neuron 14:879-888 (1995)). […]
# tau-promoted MT assembly = experiment: Microtubule assembly light-scattering assay (turbidity at 350 nm); type: biochemical; settings: 0.05 mg/ml protein, 0.05 mg/ml tau
# Sequence of tau-promoted MT assembly (P10636 45-219 isoform P10636-2 limits assumed): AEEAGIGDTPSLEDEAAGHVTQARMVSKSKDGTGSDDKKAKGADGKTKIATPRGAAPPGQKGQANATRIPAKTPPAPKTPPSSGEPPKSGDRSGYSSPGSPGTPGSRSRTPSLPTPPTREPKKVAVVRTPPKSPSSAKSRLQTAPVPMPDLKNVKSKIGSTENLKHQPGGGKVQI
# Method: The effect of Pin1 on the ability of phosphorylated tau to promote MT assembly was determined using light-scattering assays (Bramblett, G. T. et al., Neuron 10:1089-1099(1993); Alonso, A. C. et al., Proc Natl Acad Sci USA 91:5562-5566 (1994); Busciglio, J. et al., Neuron 14:879-888 (1995)). Briefly, MTs were assembled from phosphocellulose purified bovine tubulin (Cytoskeleton, Inc) and stabilized by Taxol. The nonphosphorylated or Cdc2 phosphorylated recombinant tau (0.1 mg/ml) was incubated with Pin1 (0.1 mg/ml) at 35° C. for 5 min before adding to the MTs. Bound tau was isolated by centrifugation (50,000×g) at 25° C. for 20 min, followed by immunoblotting analysis using CP27 and Pin1 antibodies. The ability of tau to promote MT assembly was determined using well established light-scattering assays. Briefly, the assembly of MTs was initiated by incubating tubulin (2 mg/ml) with or without tau (0.05 mg/ml) in 80 mM PIPES, pH 6.8, 1 mM EGTA, 1 mM MgCl2, 1 mM GTP, 20% glycerol at 35° C. for 2 min. The mixture was then transferred to a 100 μl cuvet and the rate of the MT assembly was monitored at room temperature using the turbidity increase at 350 nm. To examine the effect of Pin1, Pin1 or its mutant (0.05 mg/ml) was pre-incubated with tau or Cdc2 phosphorylated tau (0.05 mg/ml) at 35° C. for 5 min before the MT assembly assays.
# [1] = tested on: temperature-sensitive ptf1 yeast mutant (YPM2); experiment: Rescue of temperature-sensitive ptf1 yeast mutant (in vivo function); type: cell-based; settings: YPM2 cells, restrictive temperature
# Method: Given the essential role of the WW-domain in conferring Pin1-binding specificity in vitro, a critical question is whether this domain is important in vivo. To address this question, experiments using the PIN1 yeast homologue, ESS1/PTF1 were performed. ESS1/PTF1 is essential for cell growth and human Pin1 can carry out this essential function when transfected into yeast cells (Lu, K. P. et al., Nature 380:544 (1996); Hanes, S. D. et al., Yeast 5:55 (1989); Hani, J. et al., FEBS Lett. 365:198 (1995)). A temperature-sensitive ptf1 mutant strain, YPM2, grows at the permissive temperature (23° C.), but not at the restrictive temperature (30° C.) (Hanes, S. D. et al., Yeast 5:55 (1989); Hani, J. et al., FEBS Lett. 365:198 (1995)). This phenotype is completely rescued by a 1.5 kb PTF1 genomic fragment, which also contains the promoter and the 3′ processing sequence (FIG. 3). To insure that all human Pin1 proteins were expressed at physiological levels under normal regulation, the coding sequence of the fully functional ESS1/PTF1 gene in a Yepvector was replaced with the coding sequence of the human PIN1 (or Pin1 mutant) cDNA (FIG. 3) and transformed into a temperature-sensitive ptf1 strain. Transformants were selected on minimal media minus Leu at the permissive temperature (23° C.) and protein expression was detected by immunoblotting analysis using 12CA5 monoclonal antibody specific for the HA epitope tag inserted at the N-terminus. […] Those strains expressing similar levels of Pin1 and Pin1 mutants were grown at permissive and nonpermissive temperature.
# peptide substrate = experiment: PPIase activity assay with peptide substrate; type: biochemical; settings: relative to wild-type protein defined as 100%
# Sequence of Cdc2 phosphorylated tau (P10636 45-219 isoform P10636-2 limits assumed): as above
Substance,Kd (μM) Pro-Rich IPGTPPPNYD ([…] (Pro-Rich)),restoration of binding of Cdc2 phosphorylated tau to MTs (Cdc2 phosphorylated tau),effect on ability of Cdc2 phosphorylated tau to promote MT assembly (tau-promoted MT assembly),effect on ability of nonphosphorylated tau to promote MT assembly (tau-promoted MT assembly),complementation of temperature-sensitive ptf1 phenotype (in words) [1],PPlase Activity (%) (peptide substrate)
Pin1 WW-domain: N-terminal WW-domain (amino acids 1-54) of Pin1 (MADEEKLPPGWEKRMSRSSGRVYYFNHITNASQWERPSGNSSSGGKNGQGEPAR; left off: a dimerising Fc or GST),N.B.,–,–,–,–,–
Pin1: wild-type human prolyl isomerase (PPIase) Pin1 with N-terminal WW-domain; tag cleaved in Table 2,–,binding was restored,restored the ability of Cdc2 phosphorylated tau to promote MT assembly,no effect,fully complemented the temperature-sensitive phenotype,100

# Source: patent publication US6495376B1, “Methods and compositions for regulating protein-protein interactions” (Beth Israel Deaconess Medical Center, priority 1999, dated 2002)
